Earlier results as cited in patent publication US20050048543A1 (priority 2003, published 2005).

Key:
[1] = test system: patients with mild to moderate AD; details: galantamine therapy in patients

| SMILES | most common side effects [1] | response to treatment in presence of the ApoE4 polymorphism (AD patients) |
| --- | --- | --- |
| COc1ccc2c3c1O[C@H]1C[C@@H](O)C=C[C@@]31CCN(C)C2 [galantamine] | nausea, vomiting, diarrhea, dizziness and anorexia |  |
| Nc1c2c(nc3ccccc13)CCCC2 [tacrine] |  | reduced response to treatment |
